Experimental data from ChEMBL document CHEMBL3301464, “MMV Malaria Box anti-babesial screening”.

How the values were obtained:
[1] = (§1) MMV: Anti-babesial activity assay. Parasite pRBCs at 1% parasitemia were cultivated in 100 ul with 96-well plates at 2.5% and 5% hematocrits. The parasites were cultivated in triplicate for 4 days without replacement of the medium for each concentration of the compound.; format: functional, Babesia bovis
[2] = as §1; format: functional, Babesia bigemina
[3] = as §1; format: functional, Babesia equi
[4] = as §1; format: functional, Babesia caballi

Row | Structure (SMILES) | IC50 [1] [µM] | IC50 [2] [µM] | IC50 [3] [µM] | IC50 [4] [µM]
1 | COc1ccc(-c2cc3c(nn2)-c2ccccc2C3=O)cc1 | 0.34 | 10 | 9.18 | 14.8
2 | COc1ccc2c(c1)C1(Nc3ccccc3-c3nc4ccccc4n31)C(=O)N2 (centres undefined) | 16.8 | 14.2 | 3.52 | 3.9
3 | O=C1c2ccccc2-c2nnc(-c3ccc(Br)cc3)cc21 | 0.86 | 0.77 | 10.1 | 18.1
4 | CN(C)CCNc1cc(-c2ccccc2)nc2ccccc12 | 4.65 | 3.03 | 0.59 | 0.1
5 | Cc1nc2ccccc2c(O)c1CC=C(Cl)Cl | 4.27 | 10.7 | 15.2 | 3.02
6 | COCCNCC(O)Cn1c2ccc(Cl)cc2c2cc(Cl)ccc21 (centres undefined) | > 25 | 1.87 | 16.3 | 5.64
7 | CCC(O)c1ccc(Br)cc1NC(=O)c1cccc(Cl)c1 (centres undefined) | > 25 | 7.38 | > 25 | 11.4
8 | CC(=O)c1ccc(NC(=O)CSc2nc(-c3ccccc3Cl)ns2)cc1 | 0.86 | 10 | 0.65 | 3.34
9 | c1ccc2c(NCCCCCCNc3c4c(nc5ccccc35)CCCC4)c3c(nc2c1)CCCC3 | 0.99 | 2.17 | 0.5 | 6.31
10 | CCCCOC(=O)c1ccc(Nc2cc(C)nc3ccc(OC)cc23)cc1 | 22.7 | 10 | 18.1 | 17.8
11 | Cc1cc(Nc2ccc(OCc3ccccc3)cc2)nc2cc(O)ccc12 | 0.17 | 3.45 | 6.31 | 4.91
12 | Cc1cc(Nc2cccc(F)c2)nc(NCc2ccccc2)n1 | 10 | 0.093 | 5.06 | 0.1
13 | Cc1ccc(OCCCCCCNCCO)c(C)c1 | 12.1 | 9.88 | 5.09 | 13.3
14 | OC(Cn1nnc2ccccc21)Cn1c2ccc(Br)cc2c2cc(Br)ccc21 (centres undefined) | 0.1 | 1.3 | 12.6 | 15.9
15 | CCOc1ccc(-n2cc(-c3ccccc3)c3c(SCc4cc(C)ccc4C)ncnc32)cc1 | 14.6 | 10.7 | 13.9 | 16.5
16 | Cc1ccc(C)c(Cn2c(N3CCC(C(=O)NCc4cccs4)CC3)nc3ccccc32)c1 | 0.13 | 0.1 | 10 | 16.5
17 | Cc1ccccc1OCCSc1nc2ccc(NC(=O)c3cccs3)cc2s1 | 7.81 | 5.09 | 22.3 | 5.51
18 | CC1CCN(Cc2c(O)ccc3cc(-c4nc5ccccc5s4)c(=O)oc23)CC1 | 6.9 | 5.5 | 4.27 | 3.73
19 | Cc1ccc2cc3c(N)c4c(C)ccc(C)c4nc3nc2c1 | 2.63 | 4.27 | 4.52 | 7.26
20 | CC(C)CCNCC(O)Cn1c2ccccc2c2ccccc21 (centres undefined) | 0.081 | 0.76 | 0.84 | 0.38
21 | CCOc1ccccc1NC(=O)CN1CCN(C(=O)c2ccco2)CC1 | 25 | 17.5 | 10.3 | 3.81
22 | O=C(Nc1ccc(C23CC4CC(CC(c5ccccc5)(C4)C2)C3)cc1)c1cccs1 | 8.1 | 10.4 | 15.2 | 16.8
23 | Cc1ccccc1OCCSc1nc2ccc(NC(=O)c3ccccc3)cc2s1 | 0.9 | 0.26 | 1 | 16.9

Row | Structure (SMILES) | IC50 [1] [µM] | IC50 [2] [µM] | IC50 [3] [µM] | IC50 [4] [µM]
24 | COc1ccc(-c2nonc2NC(=O)c2cccc(Cl)c2)cc1OC | 10 | 8.2 | 16.6 | 11.5
25 | O=C(Nc1ccc(-c2nc3cc4ccccc4cc3[nH]2)cc1)c1cccc(Br)c1 | 7 | 4.91 | 10 | 9.03
26 | Cc1ccc2nc(C)cc(Nc3cccc(C(F)(F)F)c3)c2c1 | 6.31 | 17.5 | 5.5 | 6.72
27 | CC(C)c1ccc(CNCC(O)c2ccccc2)cc1 (centres undefined) | 14.3 | > 25 | 10 | 12.4
28 | CC(C)(C)c1ccc(C(=O)Nc2c3c(nn2-c2cccc(Cl)c2)CSC3)cc1 | 4.21 | 0.72 | 8.96 | 17
29 | CCOc1cc2c(cc1OCC)C(c1cc(Cl)c(O)c(OCC)c1)NCC2 (centres undefined) | 24 | > 25 | 12.3 | 13.4
30 | COc1ccc(N2CCN(C(CNC(=O)CC(C)(C)C)c3ccc4c(c3)OCO4)CC2)cc1 (centres undefined) | 0.79 | 0.1 | 0.51 | 16.1
31 | COc1cccc(C(=O)NC(c2ccc(C)cc2)c2cc(Cl)c3cccnc3c2O)c1 (centres undefined) | 4.68 | 1.4 | 3.73 | 16.1
32 | CCOC(=O)C1(Cc2ccccc2)CCN(Cc2cccc(OC)c2O)CC1 | 1.2 | 13.2 | 15.2 | 1.39
33 | O=C(Cc1ccccc1)NC(c1ccc(Cl)cc1)c1c(O)ccc2ccccc12 (centres undefined) | 1 | 13.1 | 12.7 | 10
34 | CCOc1ccc2c(c1)CN(Cc1ccc(Cl)cc1)CO2 | 0.26 | 13.3 | 7.54 | 10.7
35 | CC(C)(C)c1ccc2c(c1)CN(Cc1ccc(Cl)cc1)CO2 | 16.5 | > 25 | 12.8 | 5.9
36 | COc1ccc(CN2CCN(Cc3ccccc3)CC2)c(O)c1 | 8.22 | 15.2 | 10 | 12
37 | COc1cc2c(cc1OC)C1=NNC(=O)C1=NC(C)(C)C2 | 6.8 | 12.9 | 3.61 | 4.48
38 | COc1ccc2c(c1OC)C(=O)N1c3ccccc3N=C(c3ccc(C)cc3)CC21 (centres undefined) | 13 | 16.1 | 14.6 | 17.1
39 | CCCCCCc1cc(O)c2c3c(c(=O)oc2c1)CCC(C)C3 (centres undefined) | 5.1 | 10 | 3.26 | 15.9
40 | CCOc1ccc(Nc2c3ccccc3nc3ccccc23)cc1 | 0.72 | 0.1 | 4.52 | 7.54
41 | OC1=C2C(=Nc3ccccc3SC2c2ccc(Br)cc2)c2ccccc21 (centres undefined) | 11.1 | 15.2 | 12 | 7.95
42 | COc1ccc(C)c2sc(N(Cc3cccnc3)C(=O)c3ccc(C#N)cc3)nc12 | 0.24 | 0.55 | 5.69 | 15.2
43 | CCCCCCc1cc2cc(-c3nc4ccccc4[nH]3)c(=Nc3ccccc3C)oc2cc1O | 19.7 | 17.2 | > 25 | 25
44 | CCN1CCN(c2c(C(=O)c3ccccc3)cnc3cc(OC)c(OC)cc23)CC1 | 0.86 | 1.21 | 13 | 15.9
45 | C=CCc1c(C)nc2ccccc2c1O | 6.09 | 3.57 | 3.61 | 11.4
46 | CCOC(=O)c1c[nH]c2c(CC)cccc2c1=O | 9.61 | 5.09 | 13.4 | 14.6
